# Test results taken from patent publication US20260070945A1, “MACROCYCLIC IMMUNOMODULATORS” (Bristol-Myers Squibb Company, priority 2022, published 2026).
# Where a SMILES comes first, the peptide text is derived from it. Bridges are numbered along the chain shown (N, C = ends). [ ]: non-standard residue; d: D form. The star is where a group is joined. ξ: configuration not given here. Phe(4-COOH) = N[C@@H](Cc1ccc(C(=O)O)cc1)C(=O)O; Bip = N[C@@H](Cc1ccc(-c2ccccc2)cc1)C(=O)O; hArg = N=C(N)NCCCC[C@H](N)C(=O)O; 4Pal = N[C@@H](Cc1ccncc1)C(=O)O; Cha = N[C@@H](CC1CCCCC1)C(=O)O; Ile(3ξ) = CCC(C)[C@H](N)C(=O)O; Thr(3ξ) = CC(O)[C@H](N)C(=O)O; Carboxymethyl = O=C(O)C*; NMeA = CN[C@@H](C)C(=O)O; Orn = NCCC[C@H](N)C(=O)O; Aun = NCCCCCCCCCCC(=O)O; Dab = NCC[C@H](N)C(=O)O; Dap = NC[C@H](N)C(=O)O; AEEA = NCCOCCOCC(=O)O; Sar = CNCC(=O)O
# Molecular target: T1, PD-1/PD-L1 interaction (PE-labeled human PD-L1-Ig binding to Jurkat cell line over-expressing human PD-1) (Homo sapiens, UniProt Q15116)
# T1 construct: expressed in transfected cells; host or cells: Jurkat
# T1 sequence (Q15116 25-288): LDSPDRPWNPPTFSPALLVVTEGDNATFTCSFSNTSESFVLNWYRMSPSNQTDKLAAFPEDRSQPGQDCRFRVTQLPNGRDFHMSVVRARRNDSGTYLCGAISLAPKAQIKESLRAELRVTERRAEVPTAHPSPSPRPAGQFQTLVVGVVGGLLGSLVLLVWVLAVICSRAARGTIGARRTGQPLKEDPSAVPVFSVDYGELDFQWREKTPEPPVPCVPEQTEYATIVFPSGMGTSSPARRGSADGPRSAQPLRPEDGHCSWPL
# Experiment: Jurkat-PD-1 Cell Binding High-Content Screening Assay (CBA)
# Conditions: Jurkat-hPD-1 cells, PE-labeled PD-L1-Ig 20 nM final; read-out: Jurkat HPD1 PDL1 IC50
# Method in brief: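 Cells 8×10^3/well, DMEM + 10% FCS; cpd 2 h, 37 °C; PE–PD-L1-Ig 20 nM final, 1 h; PFA fix + Hoechst 33342, 3× dPBS wash; high-content imager.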
row,SMILES,IC50
1,CC(C)C[C@@H]1NC(=O)[C@H](Cc2c[nH]c3ccccc23)NC(=O)[C@H](CC(=O)O)NC(=O)[C@H](Cc2ccc(C(=O)O)cc2)NC(=O)[C@H](Cc2ccc(OCC(=O)O)cc2)NC(=O)CSC[C@@H](C(=O)N[C@@H](CCCN)C(=O)NCCOCCOCC(=O)NCCCCCCCCCCC(=O)O)NC(=O)[C@H](CO)NC(=O)[C@H](C(C)C)NC(=O)[C@H](CC2CCCCC2)NC(=O)[C@H](CCN)NC(=O)[C@@H](CC(C)C)NC(=O)[C@H](C)N(C)C(=O)[C@H](C(C)C)NC(=O)[C@H](Cc2ccc(-c3ccccc3)cc2)NC1=O [Example 2095] ({CH2CO}-Y(Carboxymethyl)[Phe(4-COOH)]DWL[Bip]V[NMeA][dL][Dab][Cha]VSC[Orn][AEEA][Aun]-OH; thioether N-14),9.5 nM
2,CC(C)C[C@@H]1NC(=O)[C@H](Cc2c[nH]c3ccccc23)NC(=O)[C@H](CC(=O)O)NC(=O)[C@H](Cc2ccc(C(=O)O)cc2)NC(=O)[C@H](Cc2ccc(OCC(=O)O)cc2)NC(=O)CSC[C@@H](C(=O)N[C@@H](CCCCN)C(=O)NCCOCCOCC(=O)NCCCCCCCCCCC(=O)O)NC(=O)[C@H](CO)NC(=O)[C@H](C(C)C)NC(=O)[C@H](CC2CCCCC2)NC(=O)[C@H](CCN)NC(=O)[C@@H](CC(C)C)NC(=O)[C@H](C)N(C)C(=O)[C@H](C(C)C)NC(=O)[C@H](Cc2ccc(-c3ccccc3)cc2)NC1=O [Example 2096] ({CH2CO}-Y(Carboxymethyl)[Phe(4-COOH)]DWL[Bip]V[NMeA][dL][Dab][Cha]VSCK[AEEA][Aun]-OH; thioether N-14),11.8 nM
3,CC(C)C[C@@H]1NC(=O)[C@H](Cc2c[nH]c3ccccc23)NC(=O)[C@H](CC(=O)O)NC(=O)[C@H](Cc2ccccc2)NC(=O)[C@H](Cc2ccc(O)cc2)NC(=O)CSC[C@@H](C(=O)N[C@@H](CCCCN)C(=O)NCCOCCOCC(=O)NCCCCCCCCCCC(=O)O)NC(=O)[C@H](CO)NC(=O)[C@H](C(C)C)NC(=O)[C@H](CC2CCCCC2)NC(=O)[C@H](CCN)NC(=O)[C@@H](CC(C)C)NC(=O)[C@H](C)N(C)C(=O)[C@H](C(C)C)NC(=O)[C@H](Cc2ccc(-c3ccccc3)cc2)NC1=O [Example 2097] ({CH2CO}-YFDWL[Bip]V[NMeA][dL][Dab][Cha]VSCK[AEEA][Aun]-OH; thioether N-14),94.8 nM
4,CC(C)C[C@@H]1NC(=O)[C@H](Cc2c[nH]c3ccccc23)NC(=O)[C@H](CC(=O)O)NC(=O)[C@H](Cc2ccccc2)NC(=O)[C@H](Cc2ccc(OCC(=O)O)cc2)NC(=O)CSC[C@@H](C(=O)N[C@@H](CCCCN)C(=O)NCCOCCOCC(=O)NCCCCCCCCCCC(=O)O)NC(=O)[C@H](CO)NC(=O)[C@H](C(C)C)NC(=O)[C@H](CC2CCCCC2)NC(=O)[C@H](CCN)NC(=O)[C@@H](CC(C)C)NC(=O)[C@H](C)N(C)C(=O)[C@H](C(C)C)NC(=O)[C@H](Cc2ccc(-c3ccccc3)cc2)NC1=O [Example 2098] ({CH2CO}-Y(Carboxymethyl)FDWL[Bip]V[NMeA][dL][Dab][Cha]VSCK[AEEA][Aun]-OH; thioether N-14),24 nM
5,CC(C)C[C@H]1NC(=O)[C@H](C)N(C)C(=O)[C@H](C(C)C)NC(=O)[C@H](Cc2ccc(-c3ccccc3)cc2)NC(=O)[C@H](C(C)C)NC(=O)[C@H](Cc2c[nH]c3ccccc23)NC(=O)[C@H](CC(=O)O)NC(=O)[C@H](Cc2ccc(OCC(=O)O)cc2)NC(=O)[C@H](CN)NC(=O)CSC[C@@H](C(=O)NCCOCCOCC(=O)N[C@@H](CN)C(=O)NCCCCCCCCCCC(=O)O)NC(=O)[C@H](C(C)O)NC(=O)[C@H](C(C)C)NC(=O)[C@H](CC2CCCCC2)NC(=O)[C@H](CCN)NC1=O (stereo partly drawn) [Example 2099] ({CH2CO}-[Dap]Y(Carboxymethyl)DWV[Bip]V[NMeA][dL][Dab][Cha]V[Thr(3ξ)]C[AEEA][Dap][Aun]-OH; thioether N-14),17 nM
6,CC(C)C[C@H]1NC(=O)[C@H](C)N(C)C(=O)[C@H](C(C)C)NC(=O)[C@H](Cc2ccc(-c3ccccc3)cc2)NC(=O)[C@H](C(C)C)NC(=O)[C@H](Cc2c[nH]c3ccccc23)NC(=O)[C@H](CC(=O)O)NC(=O)[C@H](Cc2ccc(OCC(=O)O)cc2)NC(=O)[C@H](Cc2ccncc2)NC(=O)CSC[C@@H](C(=O)N[C@@H](CCCCN)C(=O)NCCOCCOCC(=O)NCCCCCCCCCCC(=O)O)NC(=O)[C@H](CO)NC(=O)[C@H](C(C)C)NC(=O)[C@H](CC2CCCCC2)NC(=O)[C@H](CCN)NC1=O [Example 2100] ({CH2CO}-[4Pal]Y(Carboxymethyl)DWV[Bip]V[NMeA][dL][Dab][Cha]VSCK[AEEA][Aun]-OH; thioether N-14),21.7 nM
7,CC(C)C[C@H]1NC(=O)[C@H](C)N(C)C(=O)[C@H](C(C)C)NC(=O)[C@H](Cc2ccc(-c3ccccc3)cc2)NC(=O)[C@H](C(C)C)NC(=O)[C@H](Cc2c[nH]c3ccccc23)NC(=O)[C@H](CC(=O)O)NC(=O)[C@H](Cc2ccc(C(=O)O)cc2)NC(=O)[C@H](Cc2ccc(OCC(=O)O)cc2)NC(=O)CSC[C@@H](C(=O)N[C@@H](CCCCN)C(=O)NCCOCCOCC(=O)NCCCCCCCCCCC(=O)O)NC(=O)[C@H](CO)NC(=O)[C@H](C(C)C)NC(=O)[C@H](CC2CCCCC2)NC(=O)[C@H](CCN)NC1=O [Example 2101] ({CH2CO}-Y(Carboxymethyl)[Phe(4-COOH)]DWV[Bip]V[NMeA][dL][Dab][Cha]VSCK[AEEA][Aun]-OH; thioether N-14),14.6 nM
8,CC(C)[C@@H]1NC(=O)[C@H](CC2CCCCC2)NC(=O)[C@H](CCN)NC(=O)CN(C)C(=O)[C@H](C)N(C)C(=O)[C@H](C(C)C)NC(=O)[C@H](Cc2ccc(-c3ccccc3)cc2)NC(=O)[C@H](C(C)C)NC(=O)[C@H](Cc2c[nH]c3ccccc23)NC(=O)[C@H](CC(=O)O)NC(=O)[C@H](Cc2ccncc2)NC(=O)[C@H](Cc2ccc(OCC(=O)O)cc2)NC(=O)CSC[C@@H](C(=O)N[C@@H](CCCCN)C(=O)NCCOCCOCC(=O)NCCCCCCCCCCC(=O)O)NC(=O)[C@H](CO)NC1=O [Example 2102] ({CH2CO}-Y(Carboxymethyl)[4Pal]DWV[Bip]V[NMeA][Sar][Dab][Cha]VSCK[AEEA][Aun]-OH; thioether N-14),337 nM
9,CC(C)C[C@H]1NC(=O)[C@H](C)N(C)C(=O)[C@H](C(C)C)NC(=O)[C@H](Cc2ccc(-c3ccccc3)cc2)NC(=O)[C@H](C(C)C)NC(=O)[C@H](Cc2c[nH]c3ccccc23)NC(=O)[C@H](CC(=O)O)NC(=O)[C@H](CCCCNC(=N)N)NC(=O)[C@H](Cc2ccc(OCC(=O)O)cc2)NC(=O)CSC[C@@H](C(=O)N[C@@H](CCCCN)C(=O)NCCOCCOCC(=O)NCCCCCCCCCCC(=O)O)NC(=O)[C@H](CO)NC(=O)[C@H](C(C)C)NC(=O)[C@H](CC2CCCCC2)NC(=O)[C@H](CCN)NC1=O [Example 2103] ({CH2CO}-Y(Carboxymethyl)[hArg]DWV[Bip]V[NMeA][dL][Dab][Cha]VSCK[AEEA][Aun]-OH; thioether N-14),29.6 nM
10,CCC(C)[C@@H]1NC(=O)[C@H](Cc2ccc(-c3ccccc3)cc2)NC(=O)[C@H](C(C)C)NC(=O)[C@H](Cc2c[nH]c3ccccc23)NC(=O)[C@H](CC(=O)O)NC(=O)[C@H](Cc2ccc(OCC(=O)O)cc2)NC(=O)[C@H](Cc2ccncc2)NC(=O)CSC[C@@H](C(=O)N[C@@H](CCCN)C(=O)NCCOCCOCC(=O)NCCCCCCCCCCC(=O)O)NC(=O)[C@H](C(C)O)NC(=O)[C@H](C(C)C)NC(=O)[C@H](CC2CCCCC2)NC(=O)[C@H](CCN)NC(=O)[C@@H](CC(C)C)NC(=O)[C@H](C)N(C)C1=O (stereo partly drawn) [Example 2104] ({CH2CO}-[4Pal]Y(Carboxymethyl)DWV[Bip][Ile(3ξ)][NMeA][dL][Dab][Cha]V[Thr(3ξ)]C[Orn][AEEA][Aun]-OH; thioether N-14),14.1 nM
11,CCC(C)[C@@H]1NC(=O)[C@H](Cc2ccc(-c3ccccc3)cc2)NC(=O)[C@H](C(C)C)NC(=O)[C@H](Cc2c[nH]c3ccccc23)NC(=O)[C@H](CC(=O)O)NC(=O)[C@H](Cc2ccc(OCC(=O)O)cc2)NC(=O)[C@H](Cc2ccncc2)NC(=O)CSC[C@@H](C(=O)N[C@@H](CCCCN)C(=O)NCCOCCOCC(=O)NCCCCCCCCCCC(=O)O)NC(=O)[C@H](C(C)O)NC(=O)[C@H](C(C)C)NC(=O)[C@H](CC2CCCCC2)NC(=O)[C@H](CCN)NC(=O)[C@@H](CC(C)C)NC(=O)[C@H](C)N(C)C1=O (stereo partly drawn) [Example 2105] ({CH2CO}-[4Pal]Y(Carboxymethyl)DWV[Bip][Ile(3ξ)][NMeA][dL][Dab][Cha]V[Thr(3ξ)]CK[AEEA][Aun]-OH; thioether N-14),15 nM
12,CCC(C)[C@@H]1NC(=O)[C@H](Cc2ccc(-c3ccccc3)cc2)NC(=O)[C@H](C(C)C)NC(=O)[C@H](Cc2c[nH]c3ccccc23)NC(=O)[C@H](CC(=O)O)NC(=O)[C@H](Cc2ccncc2)NC(=O)[C@H](Cc2ccc(OCC(=O)O)cc2)NC(=O)CSC[C@@H](C(=O)N[C@@H](CCCN)C(=O)NCCOCCOCC(=O)NCCCCCCCCCCC(=O)O)NC(=O)[C@H](C(C)O)NC(=O)[C@H](C(C)C)NC(=O)[C@H](CC2CCCCC2)NC(=O)[C@H](CCN)NC(=O)[C@@H](CC(C)C)NC(=O)[C@H](C)N(C)C1=O (stereo partly drawn) [Example 2106] ({CH2CO}-Y(Carboxymethyl)[4Pal]DWV[Bip][Ile(3ξ)][NMeA][dL][Dab][Cha]V[Thr(3ξ)]C[Orn][AEEA][Aun]-OH; thioether N-14),8 nM
13,CCC(C)[C@@H]1NC(=O)[C@H](Cc2ccc(-c3ccccc3)cc2)NC(=O)[C@H](C(C)C)NC(=O)[C@H](Cc2c[nH]c3ccccc23)NC(=O)[C@H](CC(=O)O)NC(=O)[C@H](Cc2ccncc2)NC(=O)[C@H](Cc2ccc(OCC(=O)O)cc2)NC(=O)CSC[C@@H](C(=O)N[C@@H](CCCCN)C(=O)NCCOCCOCC(=O)NCCCCCCCCCCC(=O)O)NC(=O)[C@H](C(C)O)NC(=O)[C@H](C(C)C)NC(=O)[C@H](CC2CCCCC2)NC(=O)[C@H](CCN)NC(=O)[C@@H](CC(C)C)NC(=O)[C@H](C)N(C)C1=O (stereo partly drawn) [Example 2107] ({CH2CO}-Y(Carboxymethyl)[4Pal]DWV[Bip][Ile(3ξ)][NMeA][dL][Dab][Cha]V[Thr(3ξ)]CK[AEEA][Aun]-OH; thioether N-14),21.9 nM
